Source: paper PMC6642116, “Structural and functional analyses of hepatitis B virus X protein BH3-like domain and Bcl-xL interaction” (Nature Communications, 2019)

What was measured:
[1] = tested on: HBV replication from pHBV1.3-Xnull replicon in HepG2 cells; test: HBV production rescue assay, PEP-1 delivered peptides; type: cell-based; details: HepG2 + pHBV1.3-Xnull; for HBcAg in cells / HBeAg in culture medium / HBsAg in culture medium / Secreted HBV DNA: peptide/PEP-1, 48 h; for HBV viral protein production and HBV DNA replication (in words): peptide/PEP-1 nanoparticles, 48 h
Text: Fig. 3 The HBx-BH3-like domain is critical for HBV production in HepG2 cells. a–e C-terminal biotinylated HBx-aa113–135 peptides (both wild-type (WT) and the W120A/L123A double mutant) were delivered into HepG2 cells transfected with pHBV1.3-Xnull using PEP-1 nanoparticles (Methods) and analyzed by streptavidin-FITC (fluorescein isothiocyanate) for transfection efficiency (a). Scale bar is 50 μm. An unrelated 23-aa peptide was used as a control (Control). The intracellular expression levels of HBV core antigen (HBcAg (b) and the levels of HBV e-antigen (HBeAg) (c), HBV S-antigen (HBsAg) (d), and HBV DNA (e) in the culture medium collected from HepG2 cells were measured (Methods). The results are shown as fold change to the WT HBx-aa113–135 peptide (WT). f–i) HepG2 cells were co-transfected with pHBV1.3-Xnull and pTT22m-HBx-WT (WT), pHBV1.3-Xnull and pTT22m-HBx(W120A/L123A), or pHBV1.3-Xnull and the pTT22m vector control (Control). Intracellular expression levels of HBcAg (f) and the levels of HBeAg (g), HBsAg (h), and HBV DNA (i) in the culture medium from HepG2 cells were measured similarly. The results are shown as fold change to the combination of pHBV1.3-Xnull and pTT22m-HBx-WT (WT). Data shown represent mean ± SD. Significance is indicated on the top. **P < 0.01, ***P < 0.001, ****P < 0.0001; two-tailed unpaired t tests (n = 3 biologically independent samples). Source data are provided as a Source Data file
HepG2 cells were grown in Dulbecco’s modified Eagle’s medium (DMEM) with 10% Gibco fetal bovine serum. C-terminal biotinylated-labeled HBx peptides were transfected into HepG2 cells by pep-1[16], a peptide carrier for the delivery of biologically active proteins into mammalian cells. HBx peptides and pep-1 were firstly dissolved in DMEM to 1 mg/ml, then adjusted to 500 µl DMEM to a final concentration of 100 µg/ml, and incubated at 37 °C for 30 min in the tube. The incubated peptide mixture was added into pre-seeded HepG2 cells in a 24-well plate and incubated for another 30 min, and then washed five times by phosphate-buffered saline (PBS) to remove the free peptides. The transfected C-terminal biotinylated HBx peptides were detected by using streptavidin-FITC (fluorescein isothiocyanate) equipment (Thermo Fisher Scientific) following the standard immunostaining methods.
Transfection of plasmids into HepG2 cells was carried out using X-tremeGENE HP DNA Transfection Reagent (Roche), following the manufacturer’s protocol. A transfection efficiency of 20–30% could be achieved. Cells were pre-seeded 24 h before transfections. pHBV1.3-HBx-null plasmid was transfected into HepG2 cells for 6 h, then HBx-aa113–135, HBx-aa113–135-(W120A, L123A), or control peptide was transfected by pep-1 carrier and incubated for additional 48 h without the removal of peptides. The culture media of the HepG2 cells were harvest for analysis.
The levels of HBsAg, HBeAg, and HBcAg expression were measured by chemiluminescence, using Commercial Assay Kit (Wantai, Beijing, China). Northern blot analysis of HBV RNA, Southern blot analysis of HBV DNA, and real-time PCR quantification of HBV DNA are described in the Supplementary Methods.

Bcl-xL = target: T1, Bcl-xL (Homo sapiens, UniProt Q07817, DEL27-82); test: Isothermal titration calorimetry of peptides with Bcl-xL; type: binding; details: ITC, 25 °C; Bcl-xL 10 μM in 25 mM Tris-HCl (pH 8.0); peptide 800 μM
T1 construct: 6xHis-SUMO (N, cleaved yes); made in house; host or cells: Escherichia coli BL21(DE3)
T1 sequence (Q07817 with tags, fused parts or gaps DEL27-82 limits assumed): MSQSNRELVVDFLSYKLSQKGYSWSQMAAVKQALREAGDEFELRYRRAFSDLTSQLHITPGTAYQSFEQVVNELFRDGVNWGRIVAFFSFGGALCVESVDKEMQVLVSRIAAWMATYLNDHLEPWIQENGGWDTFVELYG
Text: The codon-optimized DNAs encoding Bcl-xLΔTM (the flexible loop, residues 27–82, and the transmembrane domain, residues, 197–233, are deleted, total […], named as Bcl-xL thereafter) was ordered from Genewiz (www.genewiz.com). The recombinant Bcl-xL with N-terminal SUMO-fused 6× His tag was generated by the insertion of the PCR products into pETSUMO vector (Invitrogen; www.thermofisher.com) and verified by sequencing. Recombinant proteins were expressed in Escherichia coli (BL21/DE3) strain overnight at 20 °C and proteins were induced by 0.4 mM isopropyl β-D-thiogalactoside. Cells were harvested by centrifugation and the pellets were re-suspended and passed through a cell disruptor (www.avestin.com) three times. After ultracentrifugation at 40,000 rpm for 1 h, the supernatant for His-tagged recombinant proteins were purified through Ni^2+ affinity column, cleaved by Ulp-1, followed by HiLoad Superdex S-75 26/60 column (GE Healthcare). The purified proteins were dialyzed against stabilization buffer containing 20 mM Tris-HCl (pH 7.0) and 100 mM NaCl and concentrated to 10–15 mg/ml in a Centriprep-30 (Amicon) for subsequent crystallization and biochemical analysis.
Microcalorimetry was used for all measurements. Bcl-xL protein was prepared at a final concentration of 10 μM in a buffer containing 25 mM Tris-HCl (pH 8.0). The ABT-263 was dissolved in the same buffer to a final concentration of 500 μM, while the peptides were dissolved to a final concentration of 800 μM. All experiments were carried out at 25 °C. Data were analyzed using the software Origin (OriginLab).

SMC6 = type: cell-based; details: HepG2, 48 h, PEP-1 delivery; peer review file, removed from final paper
Method: (§1) affect the level of the Smc6 proteins in HepG2 cell. a, Coprecipitation experiments were performed with HepG2 cell lysate that was incubated with biotinylated HBx-aa113-135 peptides (WT) and mutant peptides with the W120A/L123A mutations, respectively. The pulldown proteins were analyzed by immunoblotting (IB) using an anti-DDB1 antibody (Abcam, ab109027). b-c, HBx-aa113-135 peptides (wild-type and the W120A/L123A double mutant peptides) were delivered into HepG2 cells using PEP-1 nanoparticles, respectively. […]
Smc6 protein expression. Nuclei were stained with DAPI (Invitrogen, D1306). The fluorescence was detected by Opera Phenix High Content Screening System (PerkinElmer) and the mean green fluorescence intensity of cells was quantified by Opera Phenix High Content Screening System. The data shown are mean ± SD. Significant differences between groups are indicated on the top. ns, no significant difference; two-tailed unpaired t-tests.

[2] = tested on: endogenous Bcl-xL protein in HepG2 cell lysate; test: Co-precipitation of endogenous Bcl-xL from HepG2 cell lysate by biotinylated HBx peptides; type: binding, human; details: biotinylated peptide, streptavidin beads, immunoblot
Method: Fig. 2 HBx binds endogenous Bcl-xL through the BH3-like domain. a HBx-aa113–135 interacts with Bcl-xL in HepG2 cell lysate. Co-precipitation experiments were performed in the HepG2 cell lysate using biotinylated HBx-aa113–135 peptides (wild type (WT)) and corresponding mutant peptides (W120A/L123A), respectively. The results were analyzed by immunoblotting (IB) using anti-Bcl-xL antibody. β-Tubulin was measured and analyzed as an input control. b Full-length HBx interacts with Bcl-xL in HepG2 cells. Co-immunoprecipitation (co-IP) experiments were performed in HepG2 cells transfected with pTT22m-HBx-WT or pTT22m-HBx(W120A/L123A).
HepG2 cells were lysed in lysis buffer [100 mM NaCl, 0.5 mM MgCl2, 0.15 mM CaCl2, 1% (v/v) Nonidet P-40, 10 mM Tris-HCl, pH 8.0] containing protease inhibitor mixture tablets (Roche). Cell lysate was centrifuged at 12,000 × g for 10 min at 4 °C to removed debris and precleared with magnetic beads conjugated with streptavidin (Dynabeads® M-280 Streptavidin, Invitrogen). Subsequently, the precleared supernatant was incubated with C-terminal biotinylated peptides for 1 h with gentle shaking at 4 °C. […] The beads were washed five times with the lysis buffer and the bound proteins were resolved on a 13.5% sodium dodecyl sulfate-polyacrylamide gel and detected by anti-Bcl-xL antibody (Cell Signaling Technology).

DDB1 = type: binding; details: biotin-conjugated peptides, HepG2 lysate; peer review file, removed from final paper
Method: as §1

KDCVFKDAEEAGEEIRLKVFVLG-K-biotin [HBx-aa113–135(W120A/L123A)]
HBcAg in cells ([1]; replicate 1): 0.546 fold-change to WT | HBeAg in culture medium ([1]; replicate 1): 0.448 fold-change to WT | HBsAg in culture medium ([1]; replicate 1): 0.379 fold-change to WT | Secreted HBV DNA ([1]; replicate 1): 1584000 Copies/mL | HBcAg in cells ([1]; replicate 2): 0.465 fold-change to WT | HBeAg in culture medium ([1]; replicate 2): 0.393 fold-change to WT | HBsAg in culture medium ([1]; replicate 2): 0.356 fold-change to WT | Secreted HBV DNA ([1]; replicate 2): 1498000 Copies/mL | HBcAg in cells ([1]; replicate 3): 0.491 fold-change to WT | HBeAg in culture medium ([1]; replicate 3): 0.405 fold-change to WT | HBsAg in culture medium ([1]; replicate 3): 0.352 fold-change to WT | Secreted HBV DNA ([1]; replicate 3): 1278000 Copies/mL | HBV viral protein production and HBV DNA replication (in words) [1]: failed to do so | dissociation constant (Bcl-xL): not detectable | level of SMC6 protein, compared with control peptide (SMC6): comparable | co-precipitation of Bcl-xL [2]: much less Bcl-xL was co-precipitated | pull-down of DDB1 by peptide (DDB1): could not be pulled down

KDCVFKDWEELGEEIRLKVFVLG-K-biotin [HBx-aa113–135-biotin, C-terminal biotinylated wild-type HBx-aa113–135; delivered with PEP-1 nanoparticles in cells]
HBcAg in cells ([1]; replicate 1): 1.057 fold-change to WT | HBeAg in culture medium ([1]; replicate 1): 0.919 fold-change to WT | HBsAg in culture medium ([1]; replicate 1): 0.971 fold-change to WT | Secreted HBV DNA ([1]; replicate 1): 3830000 Copies/mL | HBcAg in cells ([1]; replicate 2): 0.952 fold-change to WT | HBeAg in culture medium ([1]; replicate 2): 1.090 fold-change to WT | HBsAg in culture medium ([1]; replicate 2): 1.038 fold-change to WT | Secreted HBV DNA ([1]; replicate 2): 2973000 Copies/mL | HBcAg in cells ([1]; replicate 3): 0.991 fold-change to WT | HBeAg in culture medium ([1]; replicate 3): 0.990 fold-change to WT | HBsAg in culture medium ([1]; replicate 3): 0.991 fold-change to WT | Secreted HBV DNA ([1]; replicate 3): 4056000 Copies/mL | HBV viral protein production and HBV DNA replication (in words) [1]: significantly increased both HBV viral protein production and HBV DNA replication | level of SMC6 protein, compared with control peptide (SMC6): comparable | co-precipitation of Bcl-xL [2]: Bcl-xL was co-precipitated | pull-down of DDB1 by peptide (DDB1): could not be pulled down
